Data: patent publication US11807627B2, “Morphic forms of complement factor D inhibitors” (priority 2018, dated 2023)
Values after ≈ are worked out from the molar mass of the structure shown.

Tests used:
Assay type in all cases: physicochemical
[1] = Enabling form study: solubility from RT slurry in solvents (Table 2); settings: organic solvent or mixture, thermodynamic from solid
Protocol: (§1) A solution of Compound 3 and solvent/solvent system of interest was prepared. Solids persisted in solution. The samples were placed onto a stir plate at ambient (RT) or elevated (ET) temperatures. The samples were monitored to ensure that solids persisted during the slurry process. The solids were collected via vacuum filtration and dried under ambient conditions.
An enabling form study was also carried out (Table 2).

[2] = Polymorph study: temperature cycling
Protocol: Approximately 960 mg of Compound 3 Form A was weighed into a 20 mL glass vial and dissolved using 12 mL 1,4-dioxane. 0.5 mL of the solution was then dispensed into twenty-four 1.5 mL HPLC glass vials (approx. 40 mg per vial). The Compound 3 Form A solutions were then frozen (at −50° C.) and dried by lyophilization using a Lablyo mini freeze drier. Post-lyophilization, a sub-sample was taken and analyzed by XRPD. Material was successfully rendered amorphous by lyophilization.
An appropriate volume of solvent (solvent systems are detailed in Table 17) was added to lyophilized solids. The samples were temperature cycled between ambient and 40° C. (4 hour cycles) for around 72 hours. Observations were made after 72 hours temperature cycling. Further solvent was added to the samples to produce a mobile slurry and slurries were agitated at 40° C. for approximately 18 additional hours. A sub-sample of solid (where applicable) was analyzed by XRPD. Samples were heated using a heat gun to aid dissolution to ensure saturated solutions were produced. Saturated solutions were syringe filtered to remove any potential seed material (as a precaution) and divided between three different crystallization conditions: cooling, evaporation, and anti-solvent addition (volumes of saturated solutions per condition can be found in Table 17).

[3] = Process for the formation of Form J: XRPD result after each step (Table 22)
Protocol: A polymorph study was completed for Form J. The production of Form J was completed by temperature cycling amorphous Compound 3 in acetronitrile (Form B) with drying the material under ambient conditions for about 24 hours.

[4] = Interconversion experiments: competitive slurries (Example 2, Table 6); settings: Forms A and G vs Form B, ethyl acetate, ambient and approximately 50° C.
Protocol: as §1, with “conditions. […] At ambient temperature, Forms B and M are both present after almost a week of slurrying.” for “conditions.”

CC(=O)c1nn(CC(=O)N2[C@H](C(=O)Nc3nc(Br)ccc3C)C[C@@]3(C)C[C@@H]23)c2ccc(-c3cnc(C)nc3)cc12 [Compound 3, (1R,3S,5R)-2-(2-(3-acetyl-5-(2-methylpyrimidin-5-yl)-1H-indazol-1-yl)acetyl)-N-(6-bromo-3-methylpyridin-2-yl)-5-methyl-2-azabicyclo[3.1.0]hexane-3-carboxamide]
solubility ([1]; ethyl acetate, EtOAc): ~14.5 mg/mL (≈ 24.1 mM)
solubility ([1]; isopropanol, IPA): ~5.6 mg/mL (≈ 9.29 mM)
solubility ([1]; MTBE): ~1.2 mg/mL (≈ 1.99 mM)
solubility ([1]; Toluene): ~13.6 mg/mL (≈ 22.6 mM)
Crystallization technique: Maturation ([2]; 1,4-Dioxane): Clear solution
Crystallization technique: Maturation ([2]; 1-Butanol): Form A
Crystallization technique: Maturation ([2]; 2-Methyl Tetrahydrofuran): Form A
Crystallization technique: Maturation ([2]; 2-Propanol): Form A
Crystallization technique: Maturation ([2]; 40% Ethanol / 60% Water (% v/v) calc. aw = 0.7): Pattern N
Crystallization technique: Maturation ([2]; 50% 2-Propanol / 50% Heptane (% v/v), WC = weakly crystalline): Form A (WC)
Crystallization technique: Maturation ([2]; 50% Acetonitrile / 50% Water (% v/v) calc. aw = 0.9): Clear solution
Crystallization technique: Maturation ([2]; 50% Ethanol / 50% Heptane (% v/v)): Amorphous
Crystallization technique: Maturation ([2]; 70% 2-Propanol / 30% Heptane (% v/v), WC = weakly crystalline): Form B (WC)
Crystallization technique: Maturation ([2]; 70% 2-Propanol / 30% Water (% v/v) aw = 0.8): Form A
Crystallization technique: Maturation ([2]; 95% 2-Propanol / 5% Heptane (% v/v)): Form A
Crystallization technique: Maturation ([2]; 95% Heptane / 5% 2-Propanol (% v/v), WC = weakly crystalline): Form A (WC)
Crystallization technique: Maturation ([2]; 95% Methanol / 5% Water (% v/v) calc. aw = 0.2): Amorphous
Crystallization technique: Maturation ([2]; Acetone): Form B
Crystallization technique: Maturation ([2]; Acetonitrile): Form J
Crystallization technique: Maturation ([2]; Ethanol): Amorphous
Crystallization technique: Maturation ([2]; Ethyl Acetate (dry)): Amorphous
Crystallization technique: Maturation ([2]; Methanol): Pattern O
Crystallization technique: Maturation ([2]; Methylethyl Ketone): Form A
Crystallization technique: Maturation ([2]; Methylisobutyl Ketone, WC = weakly crystalline): Form A (WC)
Crystallization technique: Maturation ([2]; Tetrahydrofuran): Clear solution
Crystallization technique: Maturation ([2]; Toluene): Amorphous
Crystallization technique: Maturation ([2]; n-Heptane): Amorphous
Crystallization technique: Maturation ([2]; tert-Butylmethyl Ether): Amorphous
XRPD result ([3]; Step 1: Lyophilization): Amorphous
XRPD result ([3]; Step 5: Re-slurry in 5 mL acetonitrile): Form J
XRPD result ([3]; Step 8: Re-slurry in 1.5 mL acetonitrile 18 hours): Form J
XRPD result ([3]; Step 11: Re-slurry 4 ml acetonitrile 18 hours): Form J
XRPD result ([3]; Step 12: Air drying 2, 5 and 24 hours): Form J
XRPD result ([3]; Step 13: After 5 days storage under ambient conditions): Amorphous
XRPD result ([3]; Step 14: Re-slurry 4 ml acetonitrile 18 hours): Form J
XRPD result ([3]; Step 15: Isolation using Buchner funnel (10-15 seconds on filter bed)): Amorphous
XRPD result ([3]; Step 16: Re-slurry 4 ml acetonitrile 4 hours): Form J
XRPD result ([3]; Step 17: Isolation using centrifuge filtration): Form J
XRPD result ([3]; Step 18: Ambient drying 18 hours): Form J

CC(=O)c1nn(CC(=O)N2[C@H](C(=O)Nc3nc(Br)ccc3C)C[C@@]3(C)C[C@@H]23)c2ccc(-c3cnc(C)nc3)cc12 [Form B]
Relative stability in competitive slurry [4]: more stable form
